Laboratory results: ChEMBL document CHEMBL5316337, “Critical Role of Position 10 Residue in the Polymyxin Antimicrobial Activity” (J Med Chem, 2023)
Values after ≈ are worked out from the molar mass of the structure shown.

Tests used:
Type in all cases: functional
Pseudomonas aeruginosa [1] = assay: Antibacterial activity against polymyxin-susceptible Pseudomonas aeruginosa FADD1-PA038 clinical isolates assessed as reduction in bacterial growth by broth microdilution method
Klebsiella pneumoniae [2] = assay: Antibacterial activity against Carbapenem-resistant Klebsiella pneumoniae BM1 clinical isolates assessed as reduction in bacterial growth by broth microdilution method
Klebsiella pneumoniae [3] = assay: Antibacterial activity against Carbapenem-resistant Klebsiella pneumoniae FADD1-KP065 clinical isolates assessed as reduction in bacterial growth by broth microdilution method
Klebsiella pneumoniae [4] = assay: Antibacterial activity against polymyxin-susceptible Klebsiella pneumoniae ATCC 700721 clinical isolates assessed as reduction in bacterial growth by broth microdilution method
Pseudomonas aeruginosa [5] = assay: Antibacterial activity against polymyxin-susceptible Pseudomonas aeruginosa FADD1-PA025 clinical isolates assessed as reduction in bacterial growth by broth microdilution method
Acinetobacter baumannii [6] = assay: Antibacterial activity against polymyxin-susceptible Acinetobacter baumannii ATCC 17978 clinical isolates assessed as reduction in bacterial growth by broth microdilution method
Klebsiella pneumoniae [7] = assay: Antibacterial activity against Carbapenem-resistant Klebsiella pneumoniae FADD1-KP032 clinical isolates assessed as reduction in bacterial growth by broth microdilution method
Enterobacter cloacae [8] = assay: Antibacterial activity against polymyxin-susceptible Enterobacter cloacae FADD1-EC001 clinical isolates assessed as reduction in bacterial growth by broth microdilution method
Acinetobacter baumannii [9] = assay: Antibacterial activity against Carbapenem-resistant Acinetobacter baumannii FADD1-AB030 clinical isolates assessed as reduction in bacterial growth by broth microdilution method
Klebsiella pneumoniae [10] = assay: Antibacterial activity against Carbapenem-resistant Klebsiella pneumoniae FADD1-KP022 clinical isolates assessed as reduction in bacterial growth by broth microdilution method
Enterobacter cloacae [11] = assay: Antibacterial activity against polymyxin-susceptible Enterobacter cloacae FADD1-EC003 clinical isolates assessed as reduction in bacterial growth by broth microdilution method
Enterobacter cloacae [12] = assay: Antibacterial activity against polymyxin-susceptible Enterobacter cloacae FADD1-EC006 clinical isolates assessed as reduction in bacterial growth by broth microdilution method
Acinetobacter baumannii [13] = assay: Antibacterial activity against polymyxin-susceptible Acinetobacter baumannii ATCC 19606 clinical isolates assessed as reduction in bacterial growth by broth microdilution method
Pseudomonas aeruginosa [14] = assay: Antibacterial activity against Carbapenem-resistant Pseudomonas aeruginosa FADD1-PA022 clinical isolates assessed as reduction in bacterial growth by broth microdilution method
Pseudomonas aeruginosa [15] = assay: Antibacterial activity against Carbapenem-resistant Pseudomonas aeruginosa FADD1-PA001 clinical isolates assessed as reduction in bacterial growth by broth microdilution method
Pseudomonas aeruginosa [16] = assay: Antibacterial activity against polymyxin-susceptible Pseudomonas aeruginosa ATCC 27853 clinical isolates assessed as reduction in bacterial growth by broth microdilution method
Acinetobacter baumannii [17] = assay: Antibacterial activity against Carbapenem-resistant Acinetobacter baumannii FADD1-AB034 clinical isolates assessed as reduction in bacterial growth by broth microdilution method

CC[C@H](C)CCCCC(=O)N[C@@H](CCN)C(=O)N[C@H](C(=O)N[C@@H](CCN)C(=O)N[C@H]1CCNC(=O)[C@H](CCN)NC(=O)[C@H](CCN)NC(=O)[C@H](CCN)NC(=O)[C@H](CC(C)C)NC(=O)[C@@H](Cc2ccccc2)NC(=O)[C@H](CCN)NC1=O)[C@@H](C)O
MIC (Pseudomonas aeruginosa [1]): > 32 µg/mL | MIC (Klebsiella pneumoniae [2]): > 32 µg/mL | MIC (Klebsiella pneumoniae [3]): 4 µg/mL (≈ 3.33 µM) | MIC (Klebsiella pneumoniae [4]): > 32 µg/mL | MIC (Pseudomonas aeruginosa [5]): > 32 µg/mL | MIC (Acinetobacter baumannii [6]): 16 µg/mL (≈ 13.3 µM) | MIC (Klebsiella pneumoniae [7]): 32 µg/mL (≈ 26.6 µM) | MIC (Enterobacter cloacae [8]): > 32 µg/mL | MIC (Acinetobacter baumannii [9]): 8 µg/mL (≈ 6.65 µM) | MIC (Klebsiella pneumoniae [10]): 2 µg/mL (≈ 1.66 µM) | MIC (Enterobacter cloacae [11]): > 32 µg/mL | MIC (Enterobacter cloacae [12]): > 32 µg/mL | MIC (Acinetobacter baumannii [13]): 16 µg/mL (≈ 13.3 µM) | MIC (Pseudomonas aeruginosa [14]): > 32 µg/mL | MIC (Pseudomonas aeruginosa [15]): > 32 µg/mL | MIC (Pseudomonas aeruginosa [16]): > 32 µg/mL | MIC (Acinetobacter baumannii [17]): 16 µg/mL (≈ 13.3 µM)

CC[C@H](C)CCCCC(=O)N[C@@H](CCN)C(=O)N[C@H](C(=O)N[C@@H](CCN)C(=O)N[C@H]1CCNC(=O)[C@H](CCCNC(=N)N)NC(=O)[C@H](CCN)NC(=O)[C@H](CCN)NC(=O)[C@H](CC(C)C)NC(=O)[C@@H](Cc2ccccc2)NC(=O)[C@H](CCN)NC1=O)[C@@H](C)O
MIC (Pseudomonas aeruginosa [1]): > 32 µg/mL | MIC (Klebsiella pneumoniae [2]): > 32 µg/mL | MIC (Klebsiella pneumoniae [3]): 4 µg/mL (≈ 3.18 µM) | MIC (Klebsiella pneumoniae [4]): 32 µg/mL (≈ 25.4 µM) | MIC (Pseudomonas aeruginosa [5]): 8 µg/mL (≈ 6.36 µM) | MIC (Acinetobacter baumannii [6]): 4 µg/mL (≈ 3.18 µM) | MIC (Klebsiella pneumoniae [7]): 32 µg/mL (≈ 25.4 µM) | MIC (Enterobacter cloacae [8]): 32 µg/mL (≈ 25.4 µM) | MIC (Acinetobacter baumannii [9]): 8 µg/mL (≈ 6.36 µM) | MIC (Klebsiella pneumoniae [10]): 2 µg/mL (≈ 1.59 µM) | MIC (Enterobacter cloacae [11]): 16 µg/mL (≈ 12.7 µM) | MIC (Enterobacter cloacae [12]): 32 µg/mL (≈ 25.4 µM) | MIC (Acinetobacter baumannii [13]): 8 µg/mL (≈ 6.36 µM) | MIC (Pseudomonas aeruginosa [14]): 1 µg/mL (≈ 0.795 µM) | MIC (Pseudomonas aeruginosa [15]): > 32 µg/mL | MIC (Pseudomonas aeruginosa [16]): 4 µg/mL (≈ 3.18 µM) | MIC (Acinetobacter baumannii [17]): 4 µg/mL (≈ 3.18 µM)

CC[C@H](C)CCCCC(=O)N[C@@H](CCN)C(=O)N[C@H](C(=O)N[C@@H](CCN)C(=O)N[C@H]1CCNC(=O)[C@H](CCCN)NC(=O)[C@H](CCN)NC(=O)[C@H](CCN)NC(=O)[C@H](CC(C)C)NC(=O)[C@@H](Cc2ccccc2)NC(=O)[C@H](CCN)NC1=O)[C@@H](C)O
MIC (Pseudomonas aeruginosa [1]): > 32 µg/mL | MIC (Klebsiella pneumoniae [2]): > 32 µg/mL | MIC (Klebsiella pneumoniae [3]): 4 µg/mL (≈ 3.29 µM) | MIC (Klebsiella pneumoniae [4]): 32 µg/mL (≈ 26.3 µM) | MIC (Pseudomonas aeruginosa [5]): > 32 µg/mL | MIC (Acinetobacter baumannii [6]): 4 µg/mL (≈ 3.29 µM) | MIC (Klebsiella pneumoniae [7]): 32 µg/mL (≈ 26.3 µM) | MIC (Enterobacter cloacae [8]): 32 µg/mL (≈ 26.3 µM) | MIC (Acinetobacter baumannii [9]): 16 µg/mL (≈ 13.2 µM) | MIC (Klebsiella pneumoniae [10]): 4 µg/mL (≈ 3.29 µM) | MIC (Enterobacter cloacae [11]): 32 µg/mL (≈ 26.3 µM) | MIC (Enterobacter cloacae [12]): > 32 µg/mL | MIC (Acinetobacter baumannii [13]): 16 µg/mL (≈ 13.2 µM) | MIC (Pseudomonas aeruginosa [14]): > 32 µg/mL | MIC (Pseudomonas aeruginosa [15]): > 32 µg/mL | MIC (Pseudomonas aeruginosa [16]): > 32 µg/mL | MIC (Acinetobacter baumannii [17]): 8 µg/mL (≈ 6.58 µM)

CC[C@H](C)CCCCC(=O)N[C@@H](CCN)C(=O)N[C@H](C(=O)N[C@@H](CCN)C(=O)N[C@H]1CCNC(=O)[C@H](CN)NC(=O)[C@H](CCN)NC(=O)[C@H](CCN)NC(=O)[C@H](CC(C)C)NC(=O)[C@@H](Cc2ccccc2)NC(=O)[C@H](CCN)NC1=O)[C@@H](C)O
MIC (Pseudomonas aeruginosa [1]): 4 µg/mL (≈ 3.37 µM) | MIC (Klebsiella pneumoniae [2]): 4 µg/mL (≈ 3.37 µM) | MIC (Klebsiella pneumoniae [3]): 1 µg/mL (≈ 0.841 µM) | MIC (Klebsiella pneumoniae [4]): > 32 µg/mL | MIC (Pseudomonas aeruginosa [5]): 2 µg/mL (≈ 1.68 µM) | MIC (Acinetobacter baumannii [6]): 1 µg/mL (≈ 0.841 µM) | MIC (Klebsiella pneumoniae [7]): 2 µg/mL (≈ 1.68 µM) | MIC (Enterobacter cloacae [8]): 2 µg/mL (≈ 1.68 µM) | MIC (Acinetobacter baumannii [9]): 2 µg/mL (≈ 1.68 µM) | MIC (Klebsiella pneumoniae [10]): 1 µg/mL (≈ 0.841 µM) | MIC (Enterobacter cloacae [11]): 4 µg/mL (≈ 3.37 µM) | MIC (Enterobacter cloacae [12]): 16 µg/mL (≈ 13.5 µM) | MIC (Acinetobacter baumannii [13]): 2 µg/mL (≈ 1.68 µM) | MIC (Pseudomonas aeruginosa [14]): 0.5 µg/mL (≈ 0.421 µM) | MIC (Pseudomonas aeruginosa [15]): 2 µg/mL (≈ 1.68 µM) | MIC (Pseudomonas aeruginosa [16]): 4 µg/mL (≈ 3.37 µM) | MIC (Acinetobacter baumannii [17]): 1 µg/mL (≈ 0.841 µM)

CC[C@H](C)CCCCC(=O)N[C@@H](CCN)C(=O)N[C@H](C(=O)N[C@@H](CCN)C(=O)N[C@H]1CCNC(=O)[C@H](Cc2c[nH]cn2)NC(=O)[C@H](CCN)NC(=O)[C@H](CCN)NC(=O)[C@H](CC(C)C)NC(=O)[C@@H](Cc2ccccc2)NC(=O)[C@H](CCN)NC1=O)[C@@H](C)O
MIC (Pseudomonas aeruginosa [1]): 16 µg/mL (≈ 12.9 µM) | MIC (Klebsiella pneumoniae [2]): > 32 µg/mL | MIC (Klebsiella pneumoniae [3]): 16 µg/mL (≈ 12.9 µM) | MIC (Klebsiella pneumoniae [4]): 32 µg/mL (≈ 25.8 µM) | MIC (Pseudomonas aeruginosa [5]): 8 µg/mL (≈ 6.45 µM) | MIC (Acinetobacter baumannii [6]): 4 µg/mL (≈ 3.23 µM) | MIC (Klebsiella pneumoniae [7]): 16 µg/mL (≈ 12.9 µM) | MIC (Enterobacter cloacae [8]): 32 µg/mL (≈ 25.8 µM) | MIC (Acinetobacter baumannii [9]): > 32 µg/mL | MIC (Klebsiella pneumoniae [10]): 8 µg/mL (≈ 6.45 µM) | MIC (Enterobacter cloacae [11]): 16 µg/mL (≈ 12.9 µM) | MIC (Enterobacter cloacae [12]): > 32 µg/mL | MIC (Acinetobacter baumannii [13]): 16 µg/mL (≈ 12.9 µM) | MIC (Pseudomonas aeruginosa [14]): 1 µg/mL (≈ 0.807 µM) | MIC (Pseudomonas aeruginosa [15]): 32 µg/mL (≈ 25.8 µM) | MIC (Pseudomonas aeruginosa [16]): 8 µg/mL (≈ 6.45 µM) | MIC (Acinetobacter baumannii [17]): 16 µg/mL (≈ 12.9 µM)

CC[C@H](C)CCCCC(=O)N[C@@H](CCN)C(=O)N[C@H](C(=O)N[C@@H](CCN)C(=O)N[C@H]1CCNC(=O)[C@H](Cc2ccccc2)NC(=O)[C@H](CCN)NC(=O)[C@H](CCN)NC(=O)[C@H](CC(C)C)NC(=O)[C@@H](Cc2ccccc2)NC(=O)[C@H](CCN)NC1=O)[C@@H](C)O
MIC (Pseudomonas aeruginosa [1]): 4 µg/mL (≈ 3.2 µM) | MIC (Klebsiella pneumoniae [2]): 2 µg/mL (≈ 1.6 µM) | MIC (Klebsiella pneumoniae [3]): 1 µg/mL (≈ 0.8 µM) | MIC (Klebsiella pneumoniae [4]): 2 µg/mL (≈ 1.6 µM) | MIC (Pseudomonas aeruginosa [5]): 2 µg/mL (≈ 1.6 µM) | MIC (Acinetobacter baumannii [6]): 2 µg/mL (≈ 1.6 µM) | MIC (Klebsiella pneumoniae [7]): 1 µg/mL (≈ 0.8 µM) | MIC (Enterobacter cloacae [8]): 4 µg/mL (≈ 3.2 µM) | MIC (Acinetobacter baumannii [9]): 0.5 µg/mL (≈ 0.4 µM) | MIC (Klebsiella pneumoniae [10]): 1 µg/mL (≈ 0.8 µM) | MIC (Enterobacter cloacae [11]): 4 µg/mL (≈ 3.2 µM) | MIC (Enterobacter cloacae [12]): 4 µg/mL (≈ 3.2 µM) | MIC (Acinetobacter baumannii [13]): 2 µg/mL (≈ 1.6 µM) | MIC (Pseudomonas aeruginosa [14]): 1 µg/mL (≈ 0.8 µM) | MIC (Pseudomonas aeruginosa [15]): 1 µg/mL (≈ 0.8 µM) | MIC (Pseudomonas aeruginosa [16]): 1 µg/mL (≈ 0.8 µM) | MIC (Acinetobacter baumannii [17]): 2 µg/mL (≈ 1.6 µM)
